Experimental data taken from publication PMC5428013, “Peptide-Au Clusters Induced Tumor Cells Apoptosis via Targeting Glutathione Peroxidase-1: The Molecular Dynamics Assisted Experimental Studies” (Scientific Reports, 2017).
“Also recorded” adds a separate entry of the source.

How the values were obtained:
GPx-1 [1] = experiment: GPx-1 expression in A549 cells, western blotting; type: cell-based, human; conditions: Au dose 0, 100, 200, 400, 800 μM, 48 h
Procedure: (§1) The expression of GPx-1, caspase-3 and PARP from Au25P1_9 treated A549 cells were analyzed by western blotting. A549 cells were prior seeded on 6-well plate (at the density of 1 × 10^5 cells/well) for 24 h. Then the medium was discarded and fresh culture medium with Au25P1_9 at different doses was added to make cells exposed to final Au doses at 0, 100, 200, 400 and 800 μM, respectively. After another 48 h incubation, the cells were harvested and lysed by cell lysis buffer for Western and IP (containing 20 mM Tris-HCl, pH7.5, 150 mM NaCl, 1% Triton X-100, sodium pyrophosphate, β-glycerophosphate, EDTA, Na3VO4 and leupeptin), protease inhibitor cocktail tablet and 1 mM PMSF for 15 min on a shaker at 4 °C. The lysed cells were collected and centrifuged for 15 min at 12,000 g to get total protein of cells. The protein dose of each sample was prior quantified, and then loading buffer was added. After boiling for 5 min, the protein samples with equal amount were separated on 12% SDS polyacrylamide gel electrophoresis and then transferred onto the polyvinylidene difluoride (PVDF) membrane. Membrane was blocked by 5% nonfat dried milk prepared in tris(hydroxymethyl)amin omethane-NaCl-Tween 20 (TBST) at room temperature for 1 h, and then incubated with primary antibodies specific to β-actin, Caspase-3, PARP and GPx-1 at 4 °C overnight, respectively. […]

HCT-8 cells = experiment: Cell viability assay (CCK-8), HCT-8; type: cell-based, human; conditions: HCT-8, same condition as A549
Procedure: (§2) Briefly, cells were prior cultured on 96-well plates (at the density of 5 × 10^3 cells/well) for 24 h to allow cells attachment. The cells were treated with different doses of these free peptides (0, 1, 4, 16, 64, 256, 1024 µM) and peptide-Au clusters (0, 50, 100, 200, 400, 800 µM in Au dose) for 48 h, respectively. The cells were washed three times with PBS and then incubated with fresh growth medium containing 10% (v/v) CCK-8 reagent for 1 h at 37 °C for cell viability assay. The absorbance was measured at 450 nm by using a microplate reader (SpectraMAX M2, Sunnyvale, California). Cell viability of untreated cells was set as 100%, and that of treated cells were expressed as a relative percentage of untreated cells. All data were shown as mean percentages ± standard deviation from three independent experiments.

GPx-1 [2] = experiment: Cellular GPx-1 activity in treated A549 cells; type: cell-based, human; conditions: 48 h
Procedure: A549 cells were prior seeded on 6-well plate (at the density of 1 × 10^5 cells/well) for 24 h. Then the medium was discarded and fresh culture medium with Au25P1_9 at different doses was added to make cells exposed to final Au doses at 0, 100, 200, 400 and 800 μM, respectively. After another 48 h incubation, the cells were washed thrice with PBS and lysed by cell lysis buffer containing 1 mM PMSF for 15 min on a shaker at 4 °C. The lysed cells were collected and centrifuged for 20 min at 12,000 g to get total protein of cells. The protein dose of each sample was quantified by BCA Protein Assay Kit and the GPx-1 activity of peptide-Au clusters treated A549 cells was measured by GPx Activity Colorimetric Assay Kit, respectively. For the control experiments, a series of Au doses of Au25P1_9 at 0, 5, 25, 100, 400 μM were incubated with the GPx-1 containing cell lysate of A549 cells for 10 min and the GPx-1 activity of theses samples was also measured. The GPx-1 activity of untreated samples was set as 100%, and that of peptide-Au clusters treated samples were expressed as a relative percentage of untreated ones.

PARP = experiment: Cleaved PARP level, western blotting; type: cell-based, human; conditions: serial Au doses (0, 100, 200, 400, 800 μM), 48 h
Procedure: as §1

Hela cells = experiment: Cell viability assay (CCK-8), Hela; type: cell-based; conditions: same condition as A549
Procedure: as §2

caspase-3 = experiment: Cleaved caspase-3 level, western blotting; type: cell-based, human; conditions: serial Au doses (0, 100, 200, 400, 800 μM), 48 h
Procedure: as §1

Sequence: CCYGGPEEEEEVG [Au25P1_9, Au25 cluster coated by nine P1 peptides (…)]
- GPx-1 expression level (GPx-1 [1]): GPx-1 level remains stable
- change of cell viability (HCT-8 cells): almost negligible
- cellular GPx-1 activity (relative to untreated = 100%) (GPx-1 [2]; 800 μM of Au): 27%
- cellular GPx-1 activity (GPx-1 [2]; Au dose 0, 100, 200, 400, 800 μM): significantly decreases as Au25P1_9 dose increase; also recorded: the most effective candidate for suppression of GPx-1 activity in buffer and cells
- cleaved PARP level (PARP): Au dose-dependent increase of cleaved caspases-3 and cleaved PARP levels
- change of cell viability (Hela cells): almost negligible
- cleaved caspase-3 level (caspase-3): Au dose-dependent increase of cleaved caspases-3
